Assay results published in patent publication US11046716B2, “Beta-lactamase inhibitors” (priority 2015, dated 2021).

Experiments:
SHV-5 = molecular target: T1, SHV-5 (Klebsiella pneumoniae, UniProt P0A3M1); test: β-lactamase enzyme inhibition assay, SHV-5 (cefotaxime substrate); assay type: biochemical
T1 construct: made in house; host or cells: E. coli BL21(DE3)
Summary of the method: (§1)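 Native untagged enzymes expressed in E. coli BL21(DE3), purified by cation exchange and gel filtration. Inhibitor preincubated with enzyme 15 min at 37 °C; hydrolysis followed by absorbance: imipenem at 300 nm for KPC-2, cefotaxime at 260 nm for SHV-5. IC50 as concentration halving initial hydrolysis rate versus inhibitor-free wells.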

KPC-2 = molecular target: T2, KPC-2 (Klebsiella pneumoniae, UniProt Q9F663); test: β-lactamase enzyme inhibition assay, KPC-2 (imipenem substrate); assay type: biochemical; details: Class A; imipenem substrate, 300 nm; read-out: KPC-2
T2 construct: made in house; host or cells: E. coli BL21(DE3)
Summary of the method: as §1

VIM-2 = molecular target: T3, VIM-2 (Escherichia coli, UniProt Q5U7L7); test: β-lactamase enzyme inhibition assay, VIM-2 (nitrocefin substrate); assay type: biochemical; details: Class B; nitrocefin substrate, 486 nm; read-out: VIM-2
T3 construct: made in house; host or cells: E. coli BL21(DE3)
Summary of the method: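 Purified VIM-2 preincubated with inhibitor for 15 min at 37° C, then nitrocefin (100 μM final) added and absorbance at 486 nm followed for 10 min. Maximum hydrolysis rates compared with inhibitor-free controls; IC50 fitted from percent inhibition across inhibitor concentrations.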

AmpC = molecular target: T4, AmpC (Enterobacter cloacae, UniProt P05364); test: β-lactamase enzyme inhibition assay, p99 AmpC (nitrocefin substrate); assay type: biochemical
T4 construct: made in house; host or cells: E. coli BL21(DE3)
Summary of the method: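 Native untagged enzymes expressed in E. coli BL21(DE3), purified by cation exchange and gel filtration. Inhibitor preincubated with enzyme 15 min at 37 °C; hydrolysis followed by absorbance. IC50 as concentration halving initial hydrolysis rate versus inhibitor-free wells.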

OXA-48 = OXA-48 (UniProt Q6XEC0); test: β-lactamase enzyme inhibition assay, Class D oxacillinase; assay type: biochemical; details: read-out: OXA-48
[1] = system: E. coli expressing the Class A Extended Spectrum Beta-Lactamase (ESBL) CTX-M-15; test: Broth microdilution MIC assay with ceftazidime, E. coli CTX-M-15; assay type: cell-based; details: Fixed CAZ (ceftazidime) 4 μg/mL; E. coli ESBL4 CTX-M-15
Summary of the method: (§2)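 Test compounds in 2-fold dilutions (16 to 0.125 μg/mL final) in CAMHB were combined with a β-lactam at a static 4 μg/ml final. Plates were inoculated per CLSI broth microdilution with the β-lactamase-producing strain (pre-grown 3-5 h) and incubated 16-20 h at 37° C. MIC of test compound was read visually.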

[2] = system: E. cloacae expressing the Class C P99; test: Broth microdilution MIC assay with ceftazidime, E. cloacae P99; assay type: cell-based; details: Fixed CAZ (ceftazidime) 4 μg/mL; E. cl. 144200 p99 AmpC
Summary of the method: as §2

[3] = system: K. pneumoniae expressing the Class A carbapenemase KPC-2; test: Broth microdilution MIC assay with meropenem, K. pneumoniae KPC-2; assay type: cell-based; details: Fixed Mero (meropenem) 4 μg/mL; K. p. 156319 KPC-3
Summary of the method: as §2

[4] = system: P. aeruginosa expressing the Class B carbapenemase VIM-2; test: Broth microdilution MIC assay with meropenem, P. aeruginosa VIM-2; assay type: cell-based; details: Fixed Mero (meropenem) 4 μg/mL; P. aerug. 2775 VIM-2
Summary of the method: as §2

[5] = system: K. pneumoniae expressing the class A carbapenemase KPC-2 and the class B carbapenemase VIM-4; test: Broth microdilution MIC assay with meropenem, K. pneumoniae KPC-2 and VIM-4; assay type: cell-based; details: Fixed Mero (meropenem) 4 μg/mL; K. p. A-1797 KPC-2 VIM-4
Summary of the method: as §2

[6] = system: K. pneumoniae producing the Class D carbapenemase OXA-48; test: Broth microdilution MIC assay with meropenem, K. pneumoniae OXA-48; assay type: cell-based; details: Fixed Mero (meropenem) 4 μg/mL; K. p. 11978 OXA-48
Summary of the method: as §2

T1 sequence (P0A3M1 22-286): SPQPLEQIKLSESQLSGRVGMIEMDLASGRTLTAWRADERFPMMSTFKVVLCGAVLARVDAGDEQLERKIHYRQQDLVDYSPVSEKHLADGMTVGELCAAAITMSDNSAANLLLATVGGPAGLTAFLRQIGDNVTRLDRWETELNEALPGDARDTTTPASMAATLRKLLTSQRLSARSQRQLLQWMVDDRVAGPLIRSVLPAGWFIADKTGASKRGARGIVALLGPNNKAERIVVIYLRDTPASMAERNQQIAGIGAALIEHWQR
T2 sequence (Q9F663 25-293, looked up): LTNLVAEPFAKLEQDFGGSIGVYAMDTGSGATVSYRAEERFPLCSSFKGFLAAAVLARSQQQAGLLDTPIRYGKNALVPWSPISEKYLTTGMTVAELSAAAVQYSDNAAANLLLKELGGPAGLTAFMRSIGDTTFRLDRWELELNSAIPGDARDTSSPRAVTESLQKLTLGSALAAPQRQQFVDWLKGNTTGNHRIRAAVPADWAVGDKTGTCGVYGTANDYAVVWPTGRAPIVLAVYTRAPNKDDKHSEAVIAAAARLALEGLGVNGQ
T4 sequence (P05364 21-381): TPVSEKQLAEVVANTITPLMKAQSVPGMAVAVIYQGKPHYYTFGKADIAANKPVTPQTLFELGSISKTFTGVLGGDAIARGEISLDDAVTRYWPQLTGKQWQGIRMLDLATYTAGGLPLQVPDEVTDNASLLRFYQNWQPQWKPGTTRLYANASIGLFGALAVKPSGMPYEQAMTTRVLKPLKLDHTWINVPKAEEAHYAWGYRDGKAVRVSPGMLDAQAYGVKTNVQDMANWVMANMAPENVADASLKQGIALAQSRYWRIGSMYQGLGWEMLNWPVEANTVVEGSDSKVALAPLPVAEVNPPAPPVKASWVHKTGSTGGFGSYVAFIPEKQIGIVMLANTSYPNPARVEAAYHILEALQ

| Compound | IC50 (SHV-5) [nM] | IC50 (KPC-2) [nM] | IC50 (VIM-2) [nM] | IC50 (AmpC) [nM] | IC50 (OXA-48) [nM] | MIC (μg/mL) of Exemplary Compounds in presence of fixed β-lactams: E. coli ESBL4 CTX-M-15 [1] | MIC (μg/mL) of Exemplary Compounds in presence of fixed β-lactams: E. cl. 144200 p99 AmpC [2] | MIC (μg/mL) of Exemplary Compounds in presence of fixed β-lactams: K. p. 156319 KPC-3 [3] | MIC (μg/mL) of Exemplary Compounds in presence of fixed β-lactams: P. aerug. 2775 VIM-2 [4] | MIC (μg/mL) of Exemplary Compounds in presence of fixed β-lactams: K. p. A-1797 KPC-2 VIM-4 [5] | MIC (μg/mL) of Exemplary Compounds in presence of fixed β-lactams: K. p. 11978 OXA-48 [6] |
| --- | --- | --- | --- | --- | --- | --- | --- | --- | --- | --- | --- |
| NCCn1nnc(CC(=O)N[C@H]2Cc3cccc(C(=O)O)c3OB2O)n1 [Example 42, (R)-3-(2-(2-(2-aminoethyl)-2H-tetrazol-5-yl)acetamido)-2-hydroxy-3,4-dihydro-2H-benzo[e][1,2]oxaborinine-8-carboxylic acid] | < 100 | < 100 | < 100 | < 100 | 100 to 1000 | C (C represents an MIC of <1 μg/mL) | C (C represents an MIC of <1 μg/mL) | C (C represents an MIC of <1 μg/mL) | C (C represents an MIC of <1 μg/mL) | C (C represents an MIC of <1 μg/mL) | B (B represents an MIC between 1 and 16 μg/mL inclusive) |
| O=C(Cn1cc(C2CCNC2)nn1)N[C@H]1Cc2cccc(C(=O)O)c2OB1O (stereo partly drawn) [Example 89, (3R)-2-hydroxy-3-(2-(4-(pyrrolidin-3-yl)-1H-1,2,3-triazol-1-yl)acetamido)-3,4-dihydro-2H-benzo[e][1,2]oxaborinine-8-carboxylic acid] | 100 to 1000 | 100 to 1000 | 100 to 1000 | < 100 | 1000 to 10000 | C (C represents an MIC of <1 μg/mL) | C (C represents an MIC of <1 μg/mL) | C (C represents an MIC of <1 μg/mL) | C (C represents an MIC of <1 μg/mL) | B (B represents an MIC between 1 and 16 μg/mL inclusive) | B (B represents an MIC between 1 and 16 μg/mL inclusive) |
| O=C(Cn1cc(C(=O)NC2CCNCC2)nn1)N[C@H]1Cc2cccc(C(=O)O)c2OB1O [Example 83, (R)-2-hydroxy-3-(2-(4-(piperidin-4-ylcarbamoyl)-1H-1,2,3-triazol-1-yl)acetamido)-3,4-dihydro-2H-benzo[e][1,2]oxaborinine-8-carboxylic acid] | 100 to 1000 | 100 to 1000 | < 100 | < 100 | 100 to 1000 | C (C represents an MIC of <1 μg/mL) | C (C represents an MIC of <1 μg/mL) | C (C represents an MIC of <1 μg/mL) | C (C represents an MIC of <1 μg/mL) | B (B represents an MIC between 1 and 16 μg/mL inclusive) | B (B represents an MIC between 1 and 16 μg/mL inclusive) |
| CNC(=O)c1cn(CC(=O)N[C@H]2Cc3cccc(C(=O)O)c3OB2O)nn1 [Example 79, (R)-2-hydroxy-3-(2-(4-(methylcarbamoyl)-1H-1,2,3-triazol-1-yl)acetamido)-3,4-dihydro-2H-benzo[e][1,2]oxaborinine-8-carboxylic acid] | < 100 | < 100 | 100 to 1000 | < 100 | 100 to 1000 | C (C represents an MIC of <1 μg/mL) | C (C represents an MIC of <1 μg/mL) | C (C represents an MIC of <1 μg/mL) | C (C represents an MIC of <1 μg/mL) | B (B represents an MIC between 1 and 16 μg/mL inclusive) | C (C represents an MIC of <1 μg/mL) |
